{"source": "patent US9150579B2", "about": "“Selective PI3K delta inhibitors” (Rhizen Pharmaceuticals SA, priority 2012, dated 2015)", "key": {"[1]": {"test_system": "pAKT in AML patient bone marrow leukemic cells", "assay": "Assay 6-II: pAKT analysis of AML patient bone marrow sample (pAKT ELISA)", "type": "cell-based, human", "description": "6-II: pAKT analysis of AML patient bone marrow sample using pAKT ELISA kit: Mononuclear cells were extracted by the Ficoll method and seeded in plates. The cells were treated by different compounds for 48 hrs before they were analyzed by pAKT ELISA kit following the product protocol. Briefly, 1×10^6 cells were transferred into an ELISA kit well and lyzed with 10 μL 5× Cell Lysis Mix (phospho-AKT 1/2/3 (Ser473) InstantOne™ ELISA Kit, eBioscience, 85-86042). The cells were then incubated with 50 μl antibody cocktail for 1 hr at room temp. on a microplate shaker (˜300 rpm). After incubating with detection reagent, the result was measured using a SpectraMAX Plus microplate spectrophotometer set at 450 nm."}, "[2]": {"assay": "Metabolic stability in mouse liver microsomes", "type": "in vitro ADME", "settings": "1 μM test item, 60 minutes, NADPH", "description": "(§1) Metabolic stability studies were conducted using mouse, rat, and human liver microsomes. The protocol for the studies with mouse, rat, and human liver microsomes (all from BD Gentest, USA) is provided below. In brief, 0.4 mg protein was preincubated with 2 mM NADPH (cofactor) in phosphate buffer (pH˜7.4) for 15 min at 37° C. and then added with 1 μM test item and incubated further for 60 minutes in triplicate. The reaction mixture was terminated with methanol containing an internal standard and centrifuged further to analyze the test item remaining in the supernatant by LC-MS/MS. The percent parent compound remaining was calculated in comparison with similar samples terminated at 0 minutes."}, "[3]": {"test_system": "PI3Kδ signalling in basophils", "assay": "Assay 4: Inhibition of PI3Kδ signalling in basophils from human whole blood (anti-FcεR1 induced CD63 expression)", "settings": "read-out: EC50, inhibition of anti-FcεR1 mediated CD63 expression", "method": "PI3Kδ signalling in basophils manifested by an alteration of anti-FcεR1 induced CD63 expression is a useful pharmacodynamic marker determined using the Flow2CAST® kit (Buhlmann Laboratories, Switzerland). Briefly, it involves the following steps: • Mix the anti-coagulated blood sample by inverting the venipuncture tube several times • Prepare fresh and pyrogen-free 3.5 ml polypropylene or polystyrene tubes suitable for Flow Cytometry measurements • Add 49 μl of patient's whole blood to each tube. • Add 1 μl of 10% DMSO (background) or compound (10% DMSO) to the assigned tubes and mix gently. Incubate at room temperature for 15 min • Pipette 50 μl of the Stimulation buffer (background) or anti-FcεRI Ab to each tube • Add 100 μl of Stimulation Buffer to each tube • Mix gently. […] (using an incubator will take about 10 minutes longer incubation time due to less efficient heat transfer) • Add 2 ml pre-warmed (18-28° C.) Lysing Reagent to each tube, mix gently • Incubate for 5-10 minutes at 18-28° C. • Centrifuge the tubes for 5 minutes at 500×g • Decant the supernatant by using blotting paper • Resuspend the cell pellet with 300-800 μl of Wash Buffer • Vortex gently and acquire the data on the flow cytometer within the same day. • Percent CD63 positive cells within the gated basophil population are to be determined in different treatment groups and normalized to vehicle control."}, "[4]": {"assay": "Metabolic stability in human liver microsomes", "type": "in vitro ADME", "settings": "1 μM test item, 60 minutes, NADPH", "description": "as §1"}, "[5]": {"assay": "Metabolic stability in rat liver microsomes", "type": "in vitro ADME", "settings": "1 μM test item, 60 minutes, NADPH", "description": "as §1"}, "[6]": {"test_system": "Human Multiple Myeloma Cells", "assay": "Assay 6a: Screening for anticancer activity in human multiple myeloma cells", "type": "cell-based", "settings": "primary multiple myeloma patient cells", "description": "Samples were taken from two patients with newly diagnosed stage II IgG Kappa and stage III IgG Lambd restricted disease. This screening was performed by inducing apoptosis using doses and times determined from the MTT assay. 1-5×10^5 cells were collected by centrifugation. The cells were re-suspended in 500 μl of 1× Binding Buffer. 5 μl of Annexin V-FITC and 5 μl of propidium iodide were added. The cells were incubated at room temperature for 5 minutes in the dark.\nQuantification by flow cytometry: Annexin V-FITC binding was analyzed by flow cytometry (Ex=488 nm; Em=530 nm) using FITC signal detector (usually FL1) and PI staining using a phycoerythrin emission signal detector (usually FL2). The results are shown below and in FIG. 1."}, "[7]": {"test_system": "Primary CLL cells", "assay": "Assay 8: Screening for anticancer activity in human CLL cells", "type": "cell-based", "description": "After 72 hours of incubation, CLL cells were evaluated for cytotoxicity using the colorimetric MTS reagent. Phosphorylated Akt (S473) was measured by flow cytometry after one hour of incubation of test compound and ten minutes of incubation with anti-IgM or anti-IgD. Akt phosphorylation was quantified by median fluorescent intensity (MFI). Of the seven CLL patient samples used for experiments, five had mutated IGHV, five had 13 q deletion or normal cytogenetics determined by fluorescent in situ hybridization, three were ZAP-70 negative, and seven were CD38 negative. IgM expression ranged between 13% and 90%, whereas IgD expression was uniformly elevated."}, "[8]": {"test_system": "AML patient bone marrow leukemic cells", "assay": "Assay 6-III: Cell proliferation analysis of AML patient bone marrow sample (MTS)", "type": "cell-based, human", "description": "6-III: Cell proliferation analysis of AML patient bone marrow sample using MTS assay: Mononuclear cells were extracted by the Ficoll method and seeded in plates. The cells were treated by different compounds for 48 hrs and 72 hrs before they were analyzed by MTS assay following product instruction. Briefly, 20 μL of the MTS solution was added into each well containing the 100 μL cell suspension, followed by incubation for 4 hours at 37° C., in 95% humidity with presence of 5% CO2. The absorbance of 490 nm (A490) was read using SpectraMAX Plus microplate spectrophotometer."}, "[9]": {"test_system": "AKT phosphorylation in THP-1, HL-60, MOLT-4, RPMI-8226, or DLBCL cells", "assay": "Assay 3: Inhibition of AKT phosphorylation in leukemic cell lines", "type": "cell-based", "settings": "48 hours, Western Blotting", "description": "Inhibition of AKT phosphorylation in leukemic cell lines: THP-1, HL-60, MOLT-4, RPMI-8226, or DLBCL cells were incubated with desired concentrations of compound for 48 hours. Cells were lysed and pAKT was determined by Western Blotting. Bands were quantified using ImageJ and normalized to actin."}, "[10]": {"test_system": "AML patient bone marrow leukemic cells", "assay": "Assay 6-I: Flow cytometry analysis of apoptotic induction in AML patient bone marrow leukemic cells", "type": "cell-based, human", "description": "6-I: Flow cytometry analysis of apoptotic induction in AML patient bone marrow leukemic cells upon compound treatment using Annexin V and 7-AAD staining: Mononuclear cells were extracted by the Ficoll method and seeded in plates. The cells were treated by different compounds for 48 hrs before they were analyzed by flow cytometry. After washing with PBS, 1×10^5 cells were stained by Annexin V-APC and 7-AAD. Annexin V positive staining measures total apoptotic cells, including early and late apoptotic cells. For Annexin V positive cells, 7-AAD negative signal reflects early apoptotic cells."}, "[11]": {"test_system": "immortalized leukemic cells (B, T, and monocytic cell lines)", "assay": "Assay 7: Screening for anticancer activity in various leukemic cell lines (MTT)", "type": "cell-based", "settings": "majority of B, 72-96 h, read-out: concentration for 50% growth inhibition", "description": "Proliferation of immortalized leukemic cells representative of various indications was determined by a MTT (3-(4,5-Dimethylthiazol-2-yl)-2,5-diphenyl tetrazolium bromide) assay."}, "[12]": {"test_system": "leukemic cells", "assay": "Assay 5: Apoptosis in leukemic cell lines (in situ Caspase 3 kit)", "type": "cell-based", "settings": "24 hrs", "description": "Apoptosis in leukemic cells was determined using an in situ Caspase 3 kit (Millipore, US) as outlined below: • Seed leukemic cells at a density of 1×10^6 cells/well in a 6 well plate • Add test compound/DMSO at desired concentrations • Incubate the plate for 24 hrs at 37° C. in 5% CO2 incubator • Collect cells in a 2 ml centrifuge tube • Add 1.6 μL of freshly prepared 5× FLICA reagent and mix cells by slightly flicking the tubes • Incubate tubes for 1 hour at 37° C. under 5% CO2 • Add 2 ml of 1× wash buffer to each tube and mix • Centrifuge cells at <400×g for 5 minutes at room temperature. • Carefully remove and discard supernatant, and gently vortex cell pellet to disrupt any cell-to-cell clumping. • Resuspend cell pellet in 300 ul of 1× wash buffer • Place 100 μL of each cell suspension into each of two wells of a black microtiter plate. Avoid creation of bubbles. • Read […] of each microwell using an excitation wavelength of 490 nm and an emission wavelength of 520 nm • Percent increase in caspase-3 activity manifested by an increase in fluorescence compared to the control blank is to be calculated."}}, "note": "“Also recorded” adds a separate entry of the source."}
{"smiles": "CC(C)Oc1ccc(-c2nn([C@@H](C)c3oc4ccc(F)cc4c(=O)c3-c3cccc(F)c3)c3ncnc(N)c23)cc1F", "note": "[Compound B1, (S)-2-(1-(4-amino-3-(3-fluoro-4-isopropoxyphenyl)-1H-pyrazolo[3,4-d]pyrimidin-1-yl)ethyl)-6-fluoro-3-(3-fluorophenyl)-4H-chromen-4-one]", "values": [{"measurement": "AKT phosphorylation (dose dependence)", "setting": "[1]", "value": "dose dependent reduction"}, {"measurement": "inhibition at 0.3 µM", "setting": "[1]; Homo sapiens, Bone marrow cell, 0.3 μM, 48 hrs", "value": "> 50", "unit": "%"}, {"measurement": "Metabolic stability in liver microsomes, Mouse (percent parent compound remaining)", "setting": "[2]", "value": 36.6, "unit": "%"}, {"measurement": "EC50", "setting": "[3]", "value": "≤ 100", "unit": "nM"}, {"measurement": "Metabolic stability in liver microsomes, Human (percent parent compound remaining)", "setting": "[4]", "value": 74.9, "unit": "%"}, {"measurement": "Metabolic stability in liver microsomes, Rat (percent parent compound remaining)", "setting": "[5]", "value": 23.1, "unit": "%"}, {"measurement": "inhibition at 3 µM", "setting": "[6]; Homo sapiens, Multiple myeloma cell, 3.0 μM, read-out: inhibition of PAKT", "value": "> 75", "unit": "%"}, {"measurement": "cell viability", "setting": "[6]", "value": "Dose dependent reduction in cell viability."}, {"measurement": "apoptosis (caspase-3+/7AAD+)", "setting": "[7]; 48 hours, 0.1 and 25.6 μM", "value": "significantly induced apoptosis"}, {"measurement": "cytotoxicity (MTS)", "setting": "[7]; 72 hours, 0.1 and 25.6 μM", "value": "significantly induced"}, {"measurement": "Akt phosphorylation (S473) induced by anti-surface immunoglobulin", "setting": "[7]; one hour compound, anti-IgM or anti-IgD, flow cytometry MFI", "value": "significantly abrogated this effect and returned Akt phosphorylation to baseline"}, {"measurement": "cell viability / proliferation", "setting": "[8]", "value": "dose dependent reduction in proliferation; also recorded: Dose dependent reduction in cell viability"}, {"measurement": "inhibition at 1 µM", "setting": "[9]", "value": "50 to 90", "unit": "%"}, {"measurement": "number of apoptotic cells", "setting": "[10]", "value": "concomitant increase in the number of apoptotic cells"}, {"measurement": "IC50", "setting": "[11]", "value": "500 to 7500", "unit": "nM"}, {"measurement": "Caspase-3 activity", "setting": "[12]", "value": "dose-dependently induced Caspase-3 activity"}]}
